Article PMC11614538, “The proline-rich antimicrobial peptide B7-005: low bacterial resistance, safe for human cells and effective in zebrafish embryo bacteraemia model” (Open Biology, 2024)
Read-outs that look alike come from different tables or passages of the source. Residues, ends and D or L forms follow the SMILES beside them.

Legend:
a human cell line = conditions: ref [20]; cited from earlier work
Excerpt: In a previous work, we systematically modified Bac7(1-16), an active N-terminal fragment of the natural PrAMP full-length Bac7 [19], to identify the amino acid residues essential for inhibiting protein synthesis, with the goal to discover new derivatives with improved antimicrobial activity. […] B7-005 ...

[1] = tested on: osteosarcoma cell line MG-63; conditions: cited from earlier work
Excerpt: In this study, the response of cells to B7-005 varied according to the cell type. The tumoral MEC-1 cells were the most sensitive to the cytotoxic effects of the peptide, displaying even higher sensitivity to B7-005 than observed in a previous study. However, we note that in the previous study, the peptides were generated by SPOT synthesis and therefore were of lower-grade purification, which likely explains the differences observed with our study. […] These cells were the only non-immortalized or tumor ...

E. coli ATCC 25922 = assay: MIC against E. coli ATCC 25922 in the presence of human serum; type: cell-based, Escherichia coli
Description: Escherichia coli ATCC 25922 was purchased from the American Type Culture Collection (ATCC) (Manassas, Virginia, USA) and stored at −80°C as glycerol stock until use. Bacterial cultures were grown overnight in sterile Müller–Hinton broth (MHB) (Difco Inc.) at 37°C under agitation (140 r.p.m.). The next day, the cultures were diluted 1 : 30 in new MHB and incubated as described above for about 2 h (mean logarithmic phase) until they reached an optical density at 600 nm of about 0.3 and then diluted in fresh MHB to the desired concentrations.
The effects of human serum on the antimicrobial activity of B7-005 were assessed by performing a minimum inhibitory concentration (MIC) assay with some modifications. Non-heat-inactivated human serum (Merk Life Science S.r.l., USA) was diluted to 50%, 40%, 30%, 25%, and 20% (v/v) in MHB and the solutions were aliquoted into the wells of a round-bottomed 96-well microtitre plate (Sarstedt, Milan, Italy). Samples with no serum were used for comparison. B7-005 was diluted in MHB added with the proper amount of serum to a concentration of 128 μM, added to the first column of the plate and serially diluted twofold in MHB, added with the proper amount of serum, in the subsequent wells in a final volume of 50 μl. Then 50 μl of a mid-log suspension of 5 × 10^5 CFU ml^−1 E. coli ATCC 25922 cells prepared in MHB added with the proper amount of serum was added to each well of the plate, halving the final concentration of bacteria and peptide. The plate was incubated at 37°C for 18 h. The MIC value was calculated as the lowest concentration of the compound resulting in complete inhibition of visible bacterial growth. MIC values were determined by performing at least three independent experiments (n ≥ 3).

CC[C@H](C)[C@H](NC(=O)[C@H](CCCNC(=N)N)NC(=O)[C@@H](N)Cc1c[nH]c2ccccc12)C(=O)N[C@@H](CCCNC(=N)N)C(=O)N[C@@H](CCCNC(=N)N)C(=O)N[C@@H](CCCNC(=N)N)C(=O)N[C@@H](Cc1c[nH]c2ccccc12)C(=O)N1CCC[C@H]1C(=O)N[C@@H](CCCNC(=N)N)C(=O)N[C@@H](CC(C)C)C(=O)N1CCC[C@H]1C(=O)N[C@@H](CCCNC(=N)N)C(=O)N1CCC[C@H]1C(=O)N[C@@H](CCCNC(=N)N)C(=O)N[C@@H](Cc1c[nH]c2ccccc12)C(=O)N[C@@H](CCCNC(=N)N)C(=O)O [B7-005] (H-WRIRRRWPRLPRPRWR-OH)
cytotoxicity relative to Bac7(1-16) (a human cell line): did not increase cytotoxicity relative to Bac7(1-16) | concentration up to which MG-63 cells remained unaffected ([1]; equivalent of 128 µg ml^−1, ref [35]): ≥ 54 µM | concentration up to which MG-63 cells remained unaffected ([1]; ref [35]): ≥ 128 µg/mL | MIC of B7-005 (E. coli ATCC 25922; 0% human serum in MH medium, visual, 18 h at 37°C, mode of n = 3): 1 µM | MIC of B7-005 (E. coli ATCC 25922; 20% (v/v) human serum in MH medium, 18 h at 37°C, mode of n = 3): 2 µM | MIC of B7-005 (E. coli ATCC 25922; 20–30% (v/v) human serum): 2 µM | MIC of B7-005 (E. coli ATCC 25922; 25% (v/v) human serum in MH medium, 18 h at 37°C, mode of n = 3): 2 µM | MIC of B7-005 (E. coli ATCC 25922; 30% (v/v) human serum in MH medium, 18 h at 37°C, mode of n = 3): 2 µM | MIC of B7-005 (E. coli ATCC 25922; 40% (v/v) human serum in MH medium, 18 h at 37°C, mode of n = 3): 4 µM | MIC of B7-005 (E. coli ATCC 25922; 50% (v/v) human serum in MH medium, 18 h at 37°C, mode of n = 3): 8 µM
